# Laboratory results reported in patent US7932050B2, “Enzymatic substrates derived from phenoxazinone and their use as developers in detection of microorganisms with peptidase activity” (bioMerieux, priority 2004, dated 2011).
# Columns and labels:
# Format in all cases: cell-based
# [1] = test system: Proteus mirabilis NCTC 10975; assay: Detection of L-alanine peptidase activity on Columbia agar containing the substrate; parameters: key to C [head as printed; cells hold growth signs]: the sign ++ signifies very good growth; the sign + signifies good growth of the strain; the sign +/− signifies average growth of the strain; the sign − signifies absence of growth of the strain; conditions: substrate 50 mg/l in Columbia agar; 24 to 48 h at 37° C.
# [2] = test system: Providencia rettgeri NCTC 7475; assay: as above; parameters: key to C [head as printed; cells hold growth signs]: the sign ++ signifies very good growth; the sign + signifies good growth of the strain; the sign +/− signifies average growth of the strain; the sign − signifies absence of growth of the strain; conditions: substrate 50 mg/l in Columbia agar; 24 to 48 h at 37° C.
# [3] = test system: Staphylococcus aureus NCTC 6571; assay: as above; parameters: key to G [head as printed; cells hold colony color]: I signifies colorless; key to C [head as printed; cells hold growth signs]: the sign ++ signifies very good growth; the sign + signifies good growth of the strain; the sign +/− signifies average growth of the strain; the sign − signifies absence of growth of the strain; conditions: substrate 50 mg/l in Columbia agar; 24 to 48 h at 37° C.
# [4] = test system: Klebsiella pneumoniae NCTC 10896; assay: as above; parameters: key to C [head as printed; cells hold growth signs]: the sign ++ signifies very good growth; the sign + signifies good growth of the strain; the sign +/− signifies average growth of the strain; the sign − signifies absence of growth of the strain; conditions: substrate 50 mg/l in Columbia agar; 24 to 48 h at 37° C.
# [5] = test system: Pseudomonas aeruginosa NCTC 10662; assay: as above; parameters: key to C [head as printed; cells hold growth signs]: the sign ++ signifies very good growth; the sign + signifies good growth of the strain; the sign +/− signifies average growth of the strain; the sign − signifies absence of growth of the strain; conditions: substrate 50 mg/l in Columbia agar; 24 to 48 h at 37° C.
# [6] = test system: Streptococcus pyogenes NCTC 8306; assay: as above; parameters: key to G [head as printed; cells hold colony color]: I signifies colorless; key to C [head as printed; cells hold growth signs]: the sign ++ signifies very good growth; the sign + signifies good growth of the strain; the sign +/− signifies average growth of the strain; the sign − signifies absence of growth of the strain; conditions: substrate 50 mg/l in Columbia agar; 24 to 48 h at 37° C.
# [7] = test system: Listeria monocytogenes NCTC 11994; assay: as above; parameters: key to G [head as printed; cells hold colony color]: I signifies colorless; key to C [head as printed; cells hold growth signs]: the sign ++ signifies very good growth; the sign + signifies good growth of the strain; the sign +/− signifies average growth of the strain; the sign − signifies absence of growth of the strain; conditions: substrate 50 mg/l in Columbia agar; 24 to 48 h at 37° C.
# Salmonella hadar = assay: as above; parameters: key to C [head as printed; cells hold growth signs]: the sign ++ signifies very good growth; the sign + signifies good growth of the strain; the sign +/− signifies average growth of the strain; the sign − signifies absence of growth of the strain; conditions: substrate 50 mg/l in Columbia agar; 24 to 48 h at 37° C.
# [8] = test system: Escherichia coli NCTC 10418; assay: as above; parameters: key to C [head as printed; cells hold growth signs]: the sign ++ signifies very good growth; the sign + signifies good growth of the strain; the sign +/− signifies average growth of the strain; the sign − signifies absence of growth of the strain; conditions: substrate 50 mg/l in Columbia agar; 24 to 48 h at 37° C.
# [9] = test system: Burkholderia cepacia GIII LMG 18832; assay: Detection of β-alanine peptidase activity (example 9), colony coloration; conditions: between 24 and 48 h of incubation; strain LMG 18832
# Pseudomonas aeruginosa [10] = assay: as above; conditions: between 24 and 48 h of incubation, no accession No.
# Ralstonia taiwanensis = conditions: between 24 and 48 h of incubation
# [11] = test system: Acinetobacter calcoaceticus; assay: Detection of β-alanine peptidase activity (example 9), colony coloration; conditions: between 24 and 48 h of incubation
# [12] = test system: Pseudomonas fragilis NCIMB 8987; assay: as above; conditions: between 24 and 48 h of incubation; strain NCIMB 8987
# Ralstonia basilensis = conditions: between 24 and 48 h of incubation
# [13] = test system: Burkholderia cepacia GI LMG1222; assay: Detection of β-alanine peptidase activity (example 9), colony coloration; conditions: between 24 and 48 h of incubation; strain LMG1222
# Pseudomonas maltophilia = assay: as above; conditions: between 24 and 48 h of incubation
# [14] = test system: Acinetobacter baumannii ATCC 19606; assay: as above; conditions: between 24 and 48 h of incubation; strain ATCC 19606
# [15] = test system: Burkholderia cepacia LMG 18941; assay: Detection of β-alanine peptidase activity (example 11), colony coloration; conditions: between 24 and 48 h of incubation; strain LMG 18941
# Pseudomonas aeruginosa [16] = assay: as above; conditions: between 24 and 48 h of incubation
# Pseudomonas putida = assay: as above; conditions: between 24 and 48 h of incubation; Applicant's collection
# Pseudomonas fluorescens = assay: as above; conditions: between 24 and 48 h of incubation; Applicant's collection
# [17] = test system: Burkholderia Gladioli LGM 6880; assay: as above; conditions: between 24 and 48 h of incubation; strain LGM 6880
# Escherichia coli = assay: as above; conditions: between 24 and 48 h of incubation; Applicant's collection
# [18] = first P. aeruginosa strain of table 2 (r6)
# [19] = fourth P. aeruginosa strain of table 2 (r12)
# [20] = second P. aeruginosa strain of table 2 (r8)
# [21] = third P. aeruginosa strain of table 2 (r10)
# [22] = strain of Applicant's collection (r9)
# [23] = strain of Applicant's collection (r13)
structure (smiles),measurement,setting,value
"CCCCCc1c2nc3ccc(NC(=O)[C@H](C)NC(=O)OC(C)(C)C)cc3oc-2cc(=O)c1Cl [Chlorinated L-alanyl compound, 7-N—(N′-t-butoxycarbonyl-L-alanyl)amino-2-chloro-1-pentylphenoxazin-3-one]",C [head as printed; cells hold growth signs],[1],+
same,G [head as printed; cells hold colony color],[1],pink/purple
same,C [head as printed; cells hold growth signs],[2],+
same,G [head as printed; cells hold colony color],[2],pink/purple
same,C [head as printed; cells hold growth signs],[3],+
same,G [head as printed; cells hold colony color],[3],I
same,C [head as printed; cells hold growth signs],[4],+
same,G [head as printed; cells hold colony color],[4],pink/purple
same,C [head as printed; cells hold growth signs],[5],+
same,G [head as printed; cells hold colony color],[5],pink/purple
same,C [head as printed; cells hold growth signs],[6],+/−
same,G [head as printed; cells hold colony color],[6],I
same,C [head as printed; cells hold growth signs],[7],+
same,G [head as printed; cells hold colony color],[7],I
same,C [head as printed; cells hold growth signs],Salmonella hadar,+
same,G [head as printed; cells hold colony color],Salmonella hadar,pinl/purple
same,C [head as printed; cells hold growth signs],[8],+
same,G [head as printed; cells hold colony color],[8],pink/purple
"CCCCCc1c2nc3ccc(NC(=O)CCNC(=O)OC(C)(C)C)cc3oc-2cc(=O)c1Cl [Chlorinated beta-alanyl compound, 7-N—(N′-t-butoxycarbonyl-β-alanyl)amino-2-chloro-1-pentylphenoxazin-3-one]",coloration,[9],yellow
same,coloration,Pseudomonas aeruginosa [10]; [18],purple
same,coloration,Pseudomonas aeruginosa [10]; [19],purple
same,coloration,Pseudomonas aeruginosa [10]; [20],pale purple
same,coloration,Pseudomonas aeruginosa [10]; [21],pale purple
same,coloration,Ralstonia taiwanensis,colorless
same,coloration,[11],colorless
same,coloration,[12],colorless
same,coloration,Ralstonia basilensis,colorless
same,coloration,[13],yellow
same,coloration,Pseudomonas maltophilia,colorless
same,coloration,[14],colorless
"CCCCCc1cc(=O)cc2oc3cc(NC(=O)[C@H](C)NC(=O)OC(C)(C)C)ccc3nc1-2 [Nonchlorinated L-alanyl compound, 7-N—(N″-t-butoxycarbonyl-L-alanyl)amino-1-pentylphenoxazin-3-one]",C [head as printed; cells hold growth signs],[1],+
same,G [head as printed; cells hold colony color],[1],purple
same,C [head as printed; cells hold growth signs],[2],+
same,G [head as printed; cells hold colony color],[2],purple
same,C [head as printed; cells hold growth signs],[3],−
same,G [head as printed; cells hold colony color],[3],I
same,C [head as printed; cells hold growth signs],[4],+
same,G [head as printed; cells hold colony color],[4],purple
same,C [head as printed; cells hold growth signs],[5],+
same,G [head as printed; cells hold colony color],[5],purple
same,C [head as printed; cells hold growth signs],[6],−
same,G [head as printed; cells hold colony color],[6],I
same,C [head as printed; cells hold growth signs],[7],−
same,G [head as printed; cells hold colony color],[7],I
same,C [head as printed; cells hold growth signs],Salmonella hadar,+
same,G [head as printed; cells hold colony color],Salmonella hadar,purple
same,C [head as printed; cells hold growth signs],[8],+
same,G [head as printed; cells hold colony color],[8],purple
"CCCCCc1cc(=O)cc2oc3cc(NC(=O)CCNC(=O)OC(C)(C)C)ccc3nc1-2 [Nonchlorinated beta-alanyl compound, 7-N—(N′-t-butoxycarbonyl-β-alanyl)amino-1-pentylphenoxazin-3-one]",coloration,[9],yellow
same,coloration,Pseudomonas aeruginosa [10]; [18],purple
same,coloration,Pseudomonas aeruginosa [10]; [19],purple
same,coloration,Pseudomonas aeruginosa [10]; [20],purple
same,coloration,Pseudomonas aeruginosa [10]; [21],purple
same,coloration,Ralstonia taiwanensis,colorless
same,coloration,[11],colorless
same,coloration,[12],colorless
same,coloration,Ralstonia basilensis,colorless
same,coloration,[13],yellow
same,coloration,Pseudomonas maltophilia,colorless
same,coloration,[14],colorless
"Cc1c2nc3ccc(NC(=O)CCN)cc3oc-2cc(=O)c1C.O=C(O)C(F)(F)F [b-ala-DMP, 7-N-(β-Alanyl)amino-1,2-dimethylphenoxazin-3-one trifluoroacetate salt]",coloration,[15],pale pink
same,coloration,Pseudomonas aeruginosa [16]; strain ATCC 9027,deep pink
same,coloration,Pseudomonas aeruginosa [16]; strain ATCC 10145,deep pink
same,coloration,Pseudomonas aeruginosa [16]; strain ATCC 27853,pink
same,coloration,Pseudomonas aeruginosa [16]; [22],deep pink
same,coloration,Pseudomonas aeruginosa [16]; [23],colorless
same,coloration,Pseudomonas putida,colorless
same,coloration,Pseudomonas fluorescens,colorless
same,coloration,[17],colorless
same,coloration,Escherichia coli,orange
"COC(=O)c1c2oc3cc(NC(=O)CCNC(=O)OC(C)(C)C)ccc3nc-2c(C)c(Cl)c1=O [b-ala-MCMP, methyl 7-N—(N′-t-butoxycarbonyl-β-alanyl)amino-1-methyl-2-chlorophenoxazin-3-one-4-carboxylate]",coloration,[15],colorless
same,coloration,Pseudomonas aeruginosa [16]; strain ATCC 9027,pink-
same,coloration,Pseudomonas aeruginosa [16]; strain ATCC 10145,violet
same,coloration,Pseudomonas aeruginosa [16]; strain ATCC 27853,violet
same,coloration,Pseudomonas aeruginosa [16]; [22],violet
same,coloration,Pseudomonas aeruginosa [16]; [23],colorless
same,coloration,Pseudomonas putida,colorless
same,coloration,Pseudomonas fluorescens,colorless
same,coloration,[17],colorless
same,coloration,Escherichia coli,colorless
"Cc1c2nc3ccc(NC(=O)CCN)cc3oc-2c(C)c(=O)c1C.O=C(O)C(F)(F)F [b-ala-TMP, 7-N-(β-Alanyl)amino-1,2,4-trimethylphenoxazin-3-one trifluoroacetate salt]",coloration,[15],pale pink
same,coloration,Pseudomonas aeruginosa [16]; strain ATCC 9027,pink
same,coloration,Pseudomonas aeruginosa [16]; strain ATCC 10145,orangy-
same,coloration,Pseudomonas aeruginosa [16]; strain ATCC 27853,pink
same,coloration,Pseudomonas aeruginosa [16]; [22],orangy-
same,coloration,Pseudomonas aeruginosa [16]; [23],colorless
same,coloration,Pseudomonas putida,colorless
same,coloration,Pseudomonas fluorescens,colorless
same,coloration,[17],colorless
same,coloration,Escherichia coli,orange
